The nature of series [1]: Cytotoxicity MTT assay. Format: cell-based, human. Particulars: human.
Series [2] has as its system Methicillin-resistant S. aureus ATCC 43300. In words: microbe, parasite or virus in culture. Particulars: for MIC: Staphylococcus aureus, ATCC43300|MRSA. The essentials:
(§1)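 Each compound was serially diluted twofold in Mueller Hinton broth, spanning 8 to 0.003 µg mL^−1, and incubated with bacteria for 24 h at 37 °C before visual scoring of growth.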

The subject of series [3] is Vancomycin-resistant S. aureus NARSA VRS4. In words: microbe, parasite or virus in culture. It counts as cell-based, Staphylococcus aureus.
Series [4] is described as follows: Cytotoxicity MTT assay. To be noted: human. Format: cell-based, human. The essentials:
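HepG2 and HEK293 cells, 1.5 × 10^4 per well in DMEM with 1% FBS, were allowed to attach for 24 h, then exposed 24 h at 37 °C to compounds at 100 µM to 0.046 µM in threefold steps. MTT (0.4 mg mL^−1) was added for 2 h, and formazan in DMSO was read at 570 nm. Viability is given as percent of control, corrected for a positive control.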
The source holds these as a separate data set.

Series [5] concerns Vancomycin-intermediate S. aureus NRS1. In words: microbe, parasite or virus in culture. To be noted: for MIC VISA: Vancomycin-intermediate NRS1. The essentials: as §1
Series [6] deals with Multi-drug-resistant S. pneumoniae ATCC 700677. The experiment in a line: microbe, parasite or virus in culture. Particulars: for MIC MDR S.P.: ATCC 700677. The essentials: as §1
For series [7], the system named is Vancomycin-resistant (VanA) Enterococcus faecium ATCC 51559. The experiment in a line: microbe, parasite or virus in culture. Particulars: for MIC VRE: ATCC 51559. The essentials: as §1
Series [8] deals with S. aureus ATCC 43300. In words: Membrane permeability assay (propidium iodide). Format: cell-based, Staphylococcus aureus. As to the method:
To evaluate the ability of the compounds to disrupt the cytoplasmic membrane integrity, the membrane impermeable fluorescent DNA intercalating dye propidium iodide (PI) was used. Early exponential phase cells were pelleted and washed twice in 10 mM HEPES buffer (pH 7.4) containing 50 µg mL^−1 of CaCl2 and 5 mM glucose, and then re-suspended in the same buffer (4 × 10^8 CFU mL^−1). Cell suspension was added to a 384-well black walled polystyrene plate (Corning, CLS3573) containing compounds, giving a final concentration of 16 µg mL^−1. After 1 h incubation at 37 °C, 5 µg mL^−1 of PI was added and fluorescence was monitored for 90 min using a Tecan Infinite® m1000 Pro Multi-mode reader (excitation/emission 535/620 nm). Data were corrected by subtraction of fluorescence signal arising from untreated cells in the presence of PI. […] Each sample was tested in quadruplicate and independent assays were performed twice showing similar results. Data was analysed and presented using Prism software.

The text below walks through data of article PMC5750218, “Protein-inspired antibiotics active against vancomycin- and daptomycin-resistant bacteria” (Nature Communications, 2018).

Converted amounts (≈) assume the structure as drawn. “And” between values parts separate entries of the source, which are not always exact repeats. Equal entries are not always repeated. Where two headings read alike, the source gives them in different places.

The CC50 is the concentration at which the toxic effect on the cells reaches its halfway point. Turning to `CN[C@H](CC(C)C)C(=O)N[C@H]1C(=O)N[C@@H](CC(N)=O)C(=O)N[C@H]2C(=O)N[C@H]3C(=O)N[C@H](C(=O)N[C@H](C(=O)O)c4cc(O)cc(O)c4-c4cc3ccc4O)[C@H](O[C@H]3C[C@](C)(N)[C@@H](O)[C@H](C)O3)c3ccc(c(Cl)c3)Oc3cc2cc(c3O[C@@H]2O[C@H](CO)[C@@H](O)[C@H](O)[C@H]2O[C@H]2C[C@](C)(NCc3ccc(-c4ccc(Cl)cc4)cc3)[C@@H](O)[C@H](C)O2)Oc2ccc(cc2Cl)[C@H]1O` [Compound 5, Oritavancin, reference compound], the CC50 at 24 h in series [1] (24 h, MTT, 1% FBS, read-out: Cytotoxicity CC50 HepG2) stood at 25 µM; in series [4] (24 h, MTT, 1% FBS, read-out: Cytotoxicity CC50 HEK293), 29 µM. Moreover, the MIC in series [2] (24 h, read-out: MIC MRSA, S. aureus ATCC 43300, NBS plates, MHB, 24 h, substance alone) is 0.06 mg/L (≈ 0.0335 µM); in series [2] (read-out: MIC S. aureus ATCC 43300 MRSA, NBS, non-binding surface plate), no more than 0.016 mg/L; in series [2] (read-out: MIC S. aureus ATCC 43300 MRSA, PP, polypropylene plate) it was 1 mg/L (≈ 0.558 µM); in series [2] (read-out: MIC S. aureus ATCC 43300 MRSA, PS+P-80, polystyrene plate with 0.002% polysorbate-80) it was no more than 0.016 mg/L; in series [2] (read-out: MIC S. aureus ATCC 43300 MRSA, PS, polystyrene plate, no polysorbate-80), 1 mg/L (≈ 0.558 µM); in series [3] (Staphylococcus aureus, VRSA, read-out: MIC VRSA), 0.125 mg/L (≈ 0.0697 µM). In addition, the MIC in series [5] (Staphylococcus aureus, NRS1 / VISA, read-out: MIC VISA) was found to be 1 mg/L (≈ 0.558 µM); in series [6] (Streptococcus pneumoniae, ATCC700677, read-out: MIC MDR S.P.), 0.06 mg/L (≈ 0.0335 µM); in series [7] (Enterococcus faecium, ATCC51559 / VRE, read-out: MIC VRE), 0.125 mg/L (≈ 0.0697 µM).
Take `CCCCCCCCCCCCCC(=O)N[C@@H](CCCCN)C(=O)N[C@@H](CCCCN)C(=O)N[C@@H](CCCCN)C(=O)N[C@@H](CCCCNC(=O)[C@H]1NC(=O)[C@H]2NC(=O)[C@H](NC(=O)[C@@H]3NC(=O)[C@H](CC(N)=O)NC(=O)[C@H](NC(=O)[C@@H](CC(C)C)NC)[C@H](O)c4ccc(c(Cl)c4)Oc4cc3cc(c4O[C@@H]3O[C@H](CO)[C@@H](O)[C@H](O)[C@H]3O[C@H]3C[C@](C)(N)[C@H](O)[C@H](C)O3)Oc3ccc(cc3Cl)[C@H]2O)c2ccc(O)c(c2)-c2c(O)cc(O)cc21)C(=O)O` [Compound 17, nC13CO-KKK-K(Vancomycin)-OH]: the “Membrane permeabilisation (propidium iodide fluorescence)” value in series [8] is “comparable fluorescence intensity to oritavancin”. The molecule further displayed a CC50 at 24 h in series [1] of 15 µM. Besides, in series [2] (ATCC 43300), the “MIC S. aureus ATCC 43300 MRSA, NBS” value is no more than 0.016 mg/L; the “MIC S. aureus ATCC 43300 MRSA, PP” value was found to be 1 mg/L (≈ 0.46 µM); the “MIC S. aureus ATCC 43300 MRSA, PS+P-80” value is no more than 0.016 mg/L. For the same molecule, the “MIC MRSA” value in series [2] (ATCC 43300, 24 h) was less than 0.003 mg/L. The “MIC S. aureus ATCC 43300 MRSA, PS” value in series [2] (polystyrene plate, no polysorbate-80) was 1 mg/L and 1 to 2 mg/L. In series [4], this molecule returned a CC50 at 24 h of 19 µM. In addition, in series [5], the “MIC VISA” value is 0.03 mg/L (≈ 0.0138 µM). Besides, the “MIC MDR S.P.” value in series [6] was less than 0.003 mg/L. The “MIC VRE” value in series [7] was 0.125 mg/L (≈ 0.0575 µM).
In the case of `CCCCCCCCCCC(=O)N[C@@H](CCCCN)C(=O)N[C@@H](CCCCN)C(=O)N[C@@H](CCCCN)C(=O)N[C@@H](CCCCNC(=O)[C@H]1NC(=O)[C@H]2NC(=O)[C@H](NC(=O)[C@@H]3NC(=O)[C@H](CC(N)=O)NC(=O)[C@H](NC(=O)[C@@H](CC(C)C)NC)[C@H](O)c4ccc(c(Cl)c4)Oc4cc3cc(c4O[C@@H]3O[C@H](CO)[C@@H](O)[C@H](O)[C@H]3O[C@H]3C[C@](C)(N)[C@H](O)[C@H](C)O3)Oc3ccc(cc3Cl)[C@H]2O)c2ccc(O)c(c2)-c2c(O)cc(O)cc21)C(=O)O` [Compound 18, nC10CO-KKK-K(Vancomycin)-OH], the CC50 at 24 h in series [1] came out at 106 µM; in series [4] it was 108 µM. Also, the “MIC MRSA” value in series [2] (ATCC 43300, 24 h) was 0.045 mg/L (≈ 0.0211 µM). Also, the “MIC VRSA” value in series [3] (Vancomycin-resistant NARSA VRS4) turned out to be 0.5 mg/L (≈ 0.235 µM). Besides, in series [5], the “MIC VISA” value turned out to be 0.5 mg/L (≈ 0.235 µM). For the same molecule, the “MIC MDR S.P.” value in series [6] amounted to 0.06 mg/L (≈ 0.0282 µM).
For the molecule `CCCCCCCCCCC(=O)N[C@@H](CCCCN)C(=O)N[C@@H](CCCCN)C(=O)N[C@@H](CCCCNC(=O)[C@H]1NC(=O)[C@H]2NC(=O)[C@H](NC(=O)[C@@H]3NC(=O)[C@H](CC(N)=O)NC(=O)[C@H](NC(=O)[C@@H](CC(C)C)NC)[C@H](O)c4ccc(c(Cl)c4)Oc4cc3cc(c4O[C@@H]3O[C@H](CO)[C@@H](O)[C@H](O)[C@H]3O[C@H]3C[C@](C)(N)[C@H](O)[C@H](C)O3)Oc3ccc(cc3Cl)[C@H]2O)c2ccc(O)c(c2)-c2c(O)cc(O)cc21)C(N)=O` [Compound 21, nC10CO-KK-K(Vancomycin)-NH2], the CC50 at 24 h worked out at 131 µM in series [1] and 113 µM in series [4]. In addition, the “MIC MRSA” value in series [2] (S. aureus ATCC 43300, NBS plates, MHB, 24 h, substance alone) amounted to 0.007 mg/L (≈ 0.0035 µM). In series [5], the “MIC VISA” value came out at 0.06 mg/L (≈ 0.03 µM). Moreover, the “MIC MDR S.P.” value in series [6] was found to be 0.015 mg/L (≈ 0.0075 µM). The “MIC VRE” value in series [7] was found to be 2 mg/L (≈ 0.999 µM).
